Measurements published in US12714682B2, “Calixarene compounds and uses thereof” (UNIVERSITÄT WIEN, priority 2019, dated 2026).
Entries after “also recorded” stand apart in the source; their conditions may differ.

Experiments:
[1] = test system: aged mice; assay: Lung lysate cytokines in aged mice (animal model of ageing); assay type: in vivo; details: 30 mg/kg i.p., 2 or 3 days intervals for 2 weeks
Protocol: In a second set of experiments, the anti-inflammatory effect of SCA-744 was tested in vivo, in an animal model of ageing. It is well established that the ageing process is associated with low-grade inflammation. Mice older than 18 months show many characteristics of aged humans and are considered as a relevant model of human ageing. […] After treatment of aged mice (5 mice/group) with SCA-744 for 2 weeks (at 2 or 3 days intervals at 30 mg/kg dose, i.p.), lungs of the mice were harvested and lysates were prepared. Cytokine levels were determined by LEGENDplex™ Mouse Inflammation Panel assay from BioLegend. […] Importantly, the anti-inflammatory cytokine IL-10 was not affected by SCA-744.

[2] = test system: NQO1; assay: NQO1 immunoblot in HeLa cells; assay type: cell-based, human; details: 48 hours
Protocol: A specific anti-oxidative effect or activity of a compound is proven, if induces the expression of NQO1 in mammalian cells to a higher level than over vehicle treated cells, preferably by ~3 fold when the compound is used at 500 μM, as determined by a standard assay: Semi-quantitative western blot analysis. HeLa cells are treated with vehicle, 50, 100 and 500 μM of the compound for 48 h and lysed in Triton X-100 extraction buffer (50 mM HEPES [pH 7.4], 140 mM NaCl, 1% Triton X-100, 1 mM EDTA, 0.3 mM DTT and Complete Protease Inhibitor Cocktail). 25 μg of whole cell extract are separated on a 10% SDS-PAGE, after transfer to a PVDF membrane (Bio-Rad), proteins detected by use of standard immunoblotting procedures. […] For the analysis and quantification of the protein levels, Gel Analyzer from ImageJ (National Institute of Health, USA: http://imagej.nih.gov/ij) is used.
To verify experimentally the anti-oxidative effect of SCA-744, the induction of one of these three genes, NQO1, a major anti-oxidative enzyme was investigated. […] In fact, no NQO1 was detected in control cells under the applied experimental conditions, while a prominent signal was induced even at 50 μM, the lowest concentration of SCA-744 tested, that increased by increasing SCA-744 concentrations (approximately 3.5 fold higher signal at 500 μM). […]

[3] = test system: LDL-R; assay: LDL-R immunoblot in HeLa cells; assay type: cell-based, human; details: 50 or 500 μM, 24 or 48 hours, no signal in control
Protocol: As illustrated in the Table 1 (FIG. 10), the SCA-744 affects the expression of several genes involved in lipid metabolism, such as the Low-density Lipoprotein Receptor, a major determinant of cholesterol levels in plasma. LDLR. […] To assess directly the effect of SCA-744 on the level of LDL-R expression, HeLa cells were treated with SCA-744 at 50 or 500 μM concentrations for 24 or 48 hours. Cells were harvested, cell lysate prepared and then analysed by immunoblotting using an anti-human LDL-R antibody (C7: sc-18823, Santa Cruz Biotechnologies).

[4] = test system: Human neuroblastoma SH-SY5Y cells; assay: Untargeted metabolic profiling of SH-SY5Y cells; assay type: cell-based; details: 500 μM, 24 h
Protocol: Human neuroblastoma SH-SY5Y cells were differentiated and treated with 500 μM SCA-744 for 24 h. Cell pellets were extracted using a MeOH:ACN:H2O (2:2:1, v/v) solvent mixture. Untargeted metabolic profiling was performed at the VBCF Metabolomic Unit (www.vbcf.ac.at) employing high-resolution mass spectrometry.
The untarged metabolomic data was analyzed with the Compound Discover Software (version 3.1). The first set of metabolites were analyzed through the internal database of the Vienna Biocenter Core facility. The measured retention time of a compound was compared to the retention time of a standard previously measured. In the case there was a MS2 spectrum available, this was also taken into consideration for identification. The second set of metabolites was annotated with mzCloud (match at least 75%). Identification was based on mzCloud database comparison of measured molecular weight (5 ppm tolerance) and MS2 spectra. The third set of metabolites were annotated via ChemSpider identification (CSID) through molecular weight matching (max. mass tolerance 5 ppm). P-values were calculated by the Compound Discover Software from biological and technical (T1-T2, MS) replicates. For further annotations KEGG, HMDB, BioCyc, Metabolika and PubChem databases were used.
The metabolites with a false discovery rate (FDR)<0.05 along with p-values and corresponding fold-change were extracted and subjected to chemical and metabolic network enrichment analysis. Enrichment analysis based on chemical similarity was conducted using ChemRich that is independent of biochemical pathway assignments, but rather utilizes Tanimoto substructure similarity coefficients and medical subject headings ontology to generate non-overlapping clusters of metabolites into distinct chemical classes. Statistical testing was determined by Kolmogorv-Smirnov testing and an FDR adjusted P value of <0.05 was considered significant.
Comparison of relative metabolite abundance between control and -treated cells was determined by unpaired univariate analysis. Calculated P values were adjusted based on an FDR of 0.05 and filtered by log Fold-Change (log FC) analysis (Table 3). For illustrative purposes the metabolites are annotated on the resulting volcano plot with log FC>1 log FC<−2. A total of 261 annotated metabolites were found with an FDR<0.05.

In the case of O=S(=O)(O)c1cc2c(O)c(c1)Cc1cc(S(=O)(=O)O)cc(c1O)Cc1cc(S(=O)(=O)O)cc(c1O)Cc1cc(S(=O)(=O)O)cc(c1O)C2 [SCA-744, 4-sulfocalix[4]arene], the “IL-6, TNF-α and lipocalin (LCN2) in lung lysates” value [1] is reported as “Significantly decreased amounts”, the “anti-inflammatory cytokine IL-10 in lung lysates” value [1] is reported as “not affected” and the “NQO1 immunoblot signal increase” value ([2]; HeLa, 500 μM, prominent signal already at 50 μM, none in control) is reported as “approximately 3.5 fold”. For the same molecule, the “NQO1 protein expression (immunoblot)” value ([2]; HeLa, 50, 100 and 500 μM) was “significantly increases the expression; also recorded: very significant up-regulation”, the “LDL-R protein (immunoblot)” value [3] was “induces the expression of LDLR; also recorded: the LDL-R was detected in the cell lysates” and the “Glycolysis and NADH, as well as ATP” value [4] was “significant down-regulated”. The “Hypoxanthine and Inosine abundance” value [4] was “highly significant up-regulated”, the “Lysophosphatidyl (LPI) abundance” value [4] was “most up-regulated metabolite” and the “Thymine and adenine nucleotides, dipeptides and amino acids” value [4] was “down-regulated”. The “pharmacological response in metabolic analysis” value [4] was “altered lipid metabolism, down-regulated glycolysis and reduction of NADH, ATP”.
